Experimental findings from US8507411B2, “Neoglycorandomization and digitoxin analogs” (priority 2004, dated 2013) are described below.

The nature of this series: Hydrolytic stability of the neoglycosidic linkage. The series is classed as physicochemical. Particulars: neutral or basic conditions (pH 7, pH 9), 3 mM in 1:1 DMSO/buffer, one month. As to the method:
FIG. 4 is a graphic representation of the results of studies on the hydrolytic stability of neoglycoside 4α. The chemical stability of the neoglycosidic linkage was examined by monitoring the hydrolytic degradation of neoglycoside 4α in a 3 mM solution of 1:1 DMSO/buffer. Three buffers were used, 50 mM acetate buffer (pH 5), 50 mM phosphate buffer (pH 7), and 50 mM Tris buffer (pH 9). Neoglycoside degradation was monitored by reverse phase HPLC on an Agilent Zorbax Eclipse XDB-C8 column (4.6×150 mm) with a flow rate of 0.8 mL min^−1 and a linear gradient of 49% CH3OH/H2O to 89% CH3OH/H2O over 20 min. At t=0, neoglycoside 4α in 500 μL DMSO was added to 500 μL buffer, and the resulting solution was vortexed for 40 sec, then immediately injected onto the HPLC. Peak areas at 220 nm were used to estimate the neoglycoside/aglycon ratio, which is reported as “percent neoglycoside remaining” [Aneoglycoside/(Aneoglycoside+Aaglycon)] for each of the three buffer systems.
Hydrolytic Stability of 4α. The chemical stability of the neoglycosidic linkage was examined by monitoring the hydrolytic degradation of neoglycoside 4α in a 3 mM solution of 1:1 DMSO/buffer. Three buffers were used, 50 mM acetate buffer (pH 5), 50 mM phosphate buffer (pH 7), and 50 mM Tris buffer (pH 9). Neoglycoside degradation was monitored by reverse phase HPLC on an Agilent Zorbax Eclipse XDB-C8 column (4.6×150 mm) with a flow rate of 0.8 mL min^−1 and a linear gradient of 49% CH3OH/H2O to 89% CH3OH/H2O over 20 min. At t=0, neoglycoside 4α in 500 μL DMSO was added to 500 μL buffer, and the resulting solution was vortexed for 40 sec, then immediately injected onto the HPLC. Peak areas at 220 nm were used to estimate the neoglycoside/aglycon ratio, which is reported as “percent neoglycoside remaining” [Aneoglycoside/(Aneoglycoside+Aaglycon)] for each of the three buffer systems (see FIG. 4).
The chemical stability of the neoglycosidic linkage was examined by monitoring the hydrolytic degradation of neoglycoside 4α in a 3 mM solution of 1:1 DMSO/buffer using buffers at three different pHs.

As to `CON([C@H]1CC[C@@]2(C)[C@H](CC[C@@H]3[C@@H]2CC[C@]2(C)[C@@H](C4=CC(=O)OC4)CC[C@]32O)C1)[C@@H]1O[C@H](CO)[C@@H](O)[C@H](O)[C@@H]1O` [27β, D-mannoside], the hydrolytic stability result is “no hydrolytic degradation”.
